This is an account of results in patent US20090188496A1, “INHALABLE TIOTROPIUM AND CONTAINER THEREFOR” (Boehringer Ingelheim International GmbH, priority 2003, published 2009).

This data set in a line: In-use stability test of FPD, commercial capsules in opened blister, 40° C. and 75% Rh. The class given is physicochemical. Conditions: conclusion of tests S1-5 and HBS1-3. The protocol:
From the blister holding 5 capsules one capsule was withdrawn and the remaining 4 capsules were put 4 days into 40° C. and 75% Rh. The blister containing the 4 capsules was then put in an exicator for 2 h before tests were performed. The test was performed with 4 kPa pressure drop over the […]® at room temperature and laboratory ambient conditions.
From the blister holding 5 capsules one capsule was withdrawn and the remaining 4 capsules were put 13 days into 40° C. and 75% Rh. The blister containing the 4 capsules was then put in an exicator for 2 h before tests were performed. The test was performed with 4 kPa pressure drop over the […]® at room temperature and laboratory ambient conditions.
From the blister holding 5 capsules one capsule was withdrawn and the remaining 4 capsules were put 21 days into 40° C. and 75% Rh. The blister containing the 4 capsules was then put in an exicator for 2 h before tests were performed. The test was performed with 4 kPa pressure drop over the […]® at room temperature and laboratory ambient conditions.

SMILES strings stand for the structures.

Consider `C[N+]1(C)[C@@H]2C[C@@H](OC(=O)C(O)(c3cccs3)c3cccs3)C[C@H]1[C@@H]1O[C@@H]12` [tiotropium], for which the “Sensitivity of FPD to moisture” value is “extremely sensitive to moisture”.
